What follows are targets tested with NC(=O)CCCCC1CCSS1 [lipoamide] (assay: thermal stability z-score vs DMSO; higher = more thermally stabilized by treatment). Conditions: HeLa; lipoamide concentration 100 µM; arsenate co-treatment: 1 mM arsenate 1 h.
Description: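 Cellular thermal proteome profiling in HeLa cells. Cells were treated with 100 µM lipoamide for 1 h, with or without 1 mM arsenate for a further 1 h, then heated to ten temperatures (37-66.3 °C), and soluble protein was quantified by TMT mass spectrometry relative to 0.1% DMSO controls. The thermal stability score (sum of log2 fold changes minus the abundance score) was transformed to a z-score; mean of n = 3 experiments.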
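Note: each temperature applied for 3 min, abundance score taken as mean log2 fold change at the two lowest temperatures, z-score obtained by mean subtraction and division by SD.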

Chain of UniProt Q8IWD4 (Q8IWD4 whole entry): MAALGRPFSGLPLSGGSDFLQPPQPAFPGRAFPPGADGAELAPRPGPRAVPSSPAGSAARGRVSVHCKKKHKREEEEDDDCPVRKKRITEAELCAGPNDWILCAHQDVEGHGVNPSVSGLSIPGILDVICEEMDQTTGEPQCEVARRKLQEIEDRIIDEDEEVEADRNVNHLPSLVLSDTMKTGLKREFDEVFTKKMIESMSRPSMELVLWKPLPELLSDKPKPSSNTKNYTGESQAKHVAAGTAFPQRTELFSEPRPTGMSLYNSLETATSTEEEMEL
Chain of UniProt Q9H3K2 (Q9H3K2 whole entry): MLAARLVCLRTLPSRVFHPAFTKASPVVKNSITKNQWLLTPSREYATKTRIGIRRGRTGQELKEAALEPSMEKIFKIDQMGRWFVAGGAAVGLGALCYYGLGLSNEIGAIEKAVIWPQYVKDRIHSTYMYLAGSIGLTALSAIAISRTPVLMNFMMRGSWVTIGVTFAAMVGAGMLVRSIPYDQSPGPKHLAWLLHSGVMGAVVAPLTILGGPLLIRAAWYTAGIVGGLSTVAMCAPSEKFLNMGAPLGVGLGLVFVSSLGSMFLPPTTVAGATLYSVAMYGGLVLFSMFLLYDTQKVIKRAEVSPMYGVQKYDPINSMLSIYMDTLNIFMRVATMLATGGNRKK
Chain of UniProt Q9Y3I0 (Q9Y3I0 whole entry): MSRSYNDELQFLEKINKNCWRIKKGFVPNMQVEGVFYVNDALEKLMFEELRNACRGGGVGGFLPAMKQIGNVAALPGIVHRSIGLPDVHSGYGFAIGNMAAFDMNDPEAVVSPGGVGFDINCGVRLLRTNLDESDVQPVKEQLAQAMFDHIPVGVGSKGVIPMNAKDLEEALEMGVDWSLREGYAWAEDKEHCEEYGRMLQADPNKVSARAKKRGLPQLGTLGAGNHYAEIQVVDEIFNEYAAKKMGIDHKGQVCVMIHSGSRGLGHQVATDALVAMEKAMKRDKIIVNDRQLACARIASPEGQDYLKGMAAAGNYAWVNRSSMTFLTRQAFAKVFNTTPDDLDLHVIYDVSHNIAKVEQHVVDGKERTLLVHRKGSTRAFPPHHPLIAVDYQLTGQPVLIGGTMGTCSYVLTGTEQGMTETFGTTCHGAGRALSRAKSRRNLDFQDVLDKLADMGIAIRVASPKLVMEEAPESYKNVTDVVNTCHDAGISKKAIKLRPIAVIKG
Chain of UniProt O14920 (O14920 whole entry): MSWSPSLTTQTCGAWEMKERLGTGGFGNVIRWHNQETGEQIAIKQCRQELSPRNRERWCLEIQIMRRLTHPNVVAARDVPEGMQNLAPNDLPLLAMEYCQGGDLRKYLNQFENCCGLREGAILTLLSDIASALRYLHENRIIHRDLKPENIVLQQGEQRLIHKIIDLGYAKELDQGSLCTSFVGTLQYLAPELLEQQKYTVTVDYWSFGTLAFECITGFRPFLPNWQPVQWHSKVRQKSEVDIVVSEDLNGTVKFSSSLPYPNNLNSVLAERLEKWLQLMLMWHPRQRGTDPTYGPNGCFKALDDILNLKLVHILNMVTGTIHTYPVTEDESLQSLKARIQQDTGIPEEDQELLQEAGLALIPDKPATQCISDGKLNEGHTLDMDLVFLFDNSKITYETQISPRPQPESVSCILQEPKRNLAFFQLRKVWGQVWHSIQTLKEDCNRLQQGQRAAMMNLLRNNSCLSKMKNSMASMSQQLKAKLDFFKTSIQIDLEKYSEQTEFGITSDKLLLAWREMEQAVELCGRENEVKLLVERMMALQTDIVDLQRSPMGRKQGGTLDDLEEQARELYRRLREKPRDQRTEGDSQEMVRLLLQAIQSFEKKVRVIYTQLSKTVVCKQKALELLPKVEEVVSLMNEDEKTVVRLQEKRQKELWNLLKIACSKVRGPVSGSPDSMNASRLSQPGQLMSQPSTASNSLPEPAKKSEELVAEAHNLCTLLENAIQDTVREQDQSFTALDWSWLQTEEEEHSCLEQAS
Chain of UniProt Q9UNH7 (Q9UNH7 whole entry): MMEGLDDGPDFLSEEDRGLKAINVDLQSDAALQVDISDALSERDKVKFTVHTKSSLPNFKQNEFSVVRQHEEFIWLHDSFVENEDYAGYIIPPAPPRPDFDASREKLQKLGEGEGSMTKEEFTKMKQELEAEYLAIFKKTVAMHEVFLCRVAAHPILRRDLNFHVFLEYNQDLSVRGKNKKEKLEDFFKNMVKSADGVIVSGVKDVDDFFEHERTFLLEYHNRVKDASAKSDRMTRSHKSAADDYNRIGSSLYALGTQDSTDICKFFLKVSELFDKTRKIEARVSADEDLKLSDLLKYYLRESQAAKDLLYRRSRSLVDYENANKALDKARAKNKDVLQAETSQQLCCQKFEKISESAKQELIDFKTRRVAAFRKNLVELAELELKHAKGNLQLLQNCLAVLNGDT
Chain of UniProt Q9UEY8 (Q9UEY8 whole entry): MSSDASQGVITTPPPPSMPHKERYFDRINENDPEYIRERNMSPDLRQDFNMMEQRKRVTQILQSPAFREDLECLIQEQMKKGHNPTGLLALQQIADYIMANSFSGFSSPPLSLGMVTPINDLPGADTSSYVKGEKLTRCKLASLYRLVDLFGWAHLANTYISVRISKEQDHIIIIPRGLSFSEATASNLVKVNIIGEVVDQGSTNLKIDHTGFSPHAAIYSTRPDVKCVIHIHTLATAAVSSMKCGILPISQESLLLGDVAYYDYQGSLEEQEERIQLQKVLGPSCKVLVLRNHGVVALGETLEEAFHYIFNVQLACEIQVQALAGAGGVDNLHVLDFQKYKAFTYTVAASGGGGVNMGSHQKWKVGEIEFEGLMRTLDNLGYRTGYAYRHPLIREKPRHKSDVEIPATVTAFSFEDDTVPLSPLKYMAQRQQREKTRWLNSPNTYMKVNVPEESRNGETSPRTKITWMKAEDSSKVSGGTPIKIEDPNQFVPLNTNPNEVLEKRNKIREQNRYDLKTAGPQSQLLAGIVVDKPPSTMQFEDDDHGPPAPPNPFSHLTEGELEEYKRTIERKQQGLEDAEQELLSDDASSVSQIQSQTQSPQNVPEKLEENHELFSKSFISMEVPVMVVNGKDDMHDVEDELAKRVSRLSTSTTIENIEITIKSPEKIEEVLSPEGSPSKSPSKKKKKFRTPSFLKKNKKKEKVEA
Chain of UniProt Q8TB03 (Q8TB03 whole entry): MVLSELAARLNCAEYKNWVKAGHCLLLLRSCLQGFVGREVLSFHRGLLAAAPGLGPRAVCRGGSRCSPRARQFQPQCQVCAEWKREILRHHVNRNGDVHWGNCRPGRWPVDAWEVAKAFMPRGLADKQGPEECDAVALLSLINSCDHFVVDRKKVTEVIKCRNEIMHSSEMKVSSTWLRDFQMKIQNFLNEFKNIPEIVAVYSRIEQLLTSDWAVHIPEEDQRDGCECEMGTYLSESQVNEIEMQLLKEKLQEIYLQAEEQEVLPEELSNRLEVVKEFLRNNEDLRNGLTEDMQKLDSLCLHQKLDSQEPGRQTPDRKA
Chain of UniProt Q6NUT3 (Q6NUT3 whole entry): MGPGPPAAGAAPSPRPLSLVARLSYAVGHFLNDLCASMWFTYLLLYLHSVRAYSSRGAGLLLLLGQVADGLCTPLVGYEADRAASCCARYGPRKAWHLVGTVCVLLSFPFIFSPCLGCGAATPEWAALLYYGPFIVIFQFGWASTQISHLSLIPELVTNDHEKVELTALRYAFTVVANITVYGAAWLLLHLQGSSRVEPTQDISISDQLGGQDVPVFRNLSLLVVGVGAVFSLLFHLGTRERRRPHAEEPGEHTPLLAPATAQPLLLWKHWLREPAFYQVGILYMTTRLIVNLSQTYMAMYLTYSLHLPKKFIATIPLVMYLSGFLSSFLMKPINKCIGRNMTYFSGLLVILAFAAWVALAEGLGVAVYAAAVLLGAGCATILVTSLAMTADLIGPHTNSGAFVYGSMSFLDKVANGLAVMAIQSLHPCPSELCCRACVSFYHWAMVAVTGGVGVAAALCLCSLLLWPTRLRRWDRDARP
Chain of UniProt Q9BQD7 (Q9BQD7 whole entry): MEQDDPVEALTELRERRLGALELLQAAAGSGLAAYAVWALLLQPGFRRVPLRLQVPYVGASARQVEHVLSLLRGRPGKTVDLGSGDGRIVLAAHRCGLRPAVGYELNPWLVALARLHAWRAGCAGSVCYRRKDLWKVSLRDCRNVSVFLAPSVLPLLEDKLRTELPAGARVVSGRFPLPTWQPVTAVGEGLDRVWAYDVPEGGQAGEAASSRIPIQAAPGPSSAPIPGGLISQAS
Chain of UniProt Q96CW6 (Q96CW6 whole entry): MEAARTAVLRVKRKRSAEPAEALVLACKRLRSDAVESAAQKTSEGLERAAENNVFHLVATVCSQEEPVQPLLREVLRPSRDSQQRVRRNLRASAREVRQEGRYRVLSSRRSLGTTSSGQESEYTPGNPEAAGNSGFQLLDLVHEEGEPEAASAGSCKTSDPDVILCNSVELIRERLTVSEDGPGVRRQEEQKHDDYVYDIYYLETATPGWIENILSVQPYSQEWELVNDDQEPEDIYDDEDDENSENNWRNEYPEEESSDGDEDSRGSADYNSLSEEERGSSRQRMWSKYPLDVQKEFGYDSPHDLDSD
Chain of UniProt Q9H061 (Q9H061 whole entry): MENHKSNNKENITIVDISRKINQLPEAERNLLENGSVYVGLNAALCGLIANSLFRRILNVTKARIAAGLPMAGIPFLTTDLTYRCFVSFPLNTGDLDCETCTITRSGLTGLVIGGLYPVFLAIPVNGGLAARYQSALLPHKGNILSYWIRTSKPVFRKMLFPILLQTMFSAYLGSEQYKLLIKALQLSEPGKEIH
Chain of UniProt P61586 (P61586 whole entry): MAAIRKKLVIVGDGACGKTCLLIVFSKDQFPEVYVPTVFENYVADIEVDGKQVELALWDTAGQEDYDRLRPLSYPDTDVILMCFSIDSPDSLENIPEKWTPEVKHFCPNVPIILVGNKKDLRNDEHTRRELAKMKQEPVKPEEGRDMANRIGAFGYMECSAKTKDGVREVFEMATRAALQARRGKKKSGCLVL
Chain of UniProt O14949 (O14949 whole entry): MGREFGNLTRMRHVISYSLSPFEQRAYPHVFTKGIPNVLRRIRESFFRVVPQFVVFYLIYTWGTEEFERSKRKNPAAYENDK

Target	thermal stability z-score
GHITM (UniProt Q9H3K2)	-0.161
ADD3 (UniProt Q9UEY8)	-0.112
MFSD12 (UniProt Q6NUT3)	-0.485
RWDD1 (UniProt Q9H446)	0.432
AK2 (UniProt P54819)	-0.717
SOD2 (UniProt P04179)	0.512
TMEM126A (UniProt Q9H061)	0.676
VLDLR (UniProt P98155)	-0.517
FAM173A (UniProt Q9BQD7)	-0.403
RTCB (UniProt Q9Y3I0)	0.445
FLNC (UniProt Q14315)	0.266
SLC7A6OS (UniProt Q96CW6)	-0.344
TRMT61B (UniProt Q9BVS5)	-1.22
TRIP10 (UniProt Q15642)	0.15
TARBP1 (UniProt Q13395)	-0.285
ANXA5 (UniProt P08758)	1.34
NAA16 (UniProt Q6N069)	0.378
NDUFB11 (UniProt Q9NX14)	0.566

Target	thermal stability z-score
COPB2 (UniProt P35606)	0.165
GCNT2 (UniProt Q8N0V5)	0.367
STBD1 (UniProt O95210)	-0.616
HEATR6 (UniProt Q6AI08)	0.393
AHCYL1 (UniProt O43865)	0.156
CCDC117 (UniProt Q8IWD4)	-0.191
UFL1 (UniProt O94874)	-0.791
GNL3L (UniProt Q9NVN8)	-0.151
RPL26 (UniProt P61254)	1.18
UQCRQ (UniProt O14949)	0.971
CXORF38 (UniProt Q8TB03)	0.486
RIF1 (UniProt Q5UIP0)	0.0548
POLB (UniProt P06746)	-0.0159
SNX6 (UniProt Q9UNH7)	0.175
P4HA2 (UniProt O15460)	-3.73
DHX34 (UniProt Q14147)	0.0163
IKBKB (UniProt O14920)	-0.0799
RHOA (UniProt P61586)	0.316

Same assay, conditions: HeLa; lipoamide concentration 100 µM; arsenate co-treatment: none

Target	thermal stability z-score
KIAA1522 (UniProt Q9P206)	-0.0277
ELP6 (UniProt Q0PNE2)	-0.141
LSM4 (UniProt Q9Y4Z0)	0.265
TOLLIP (UniProt Q9H0E2)	0.158
TXNDC15 (UniProt Q96J42)	-0.609
PGP (UniProt A6NDG6)	-0.0409
GOLGA4 (UniProt Q13439)	0.00058
TP53BP1 (UniProt Q12888)	0.891
EXOC6 (UniProt Q8TAG9)	-0.374
NMD3 (UniProt Q96D46)	0.115
FGD4 (UniProt Q96M96)	-0.0145
GALNS (UniProt P34059)	0.41
NPR1 (UniProt P16066)	-0.153
PARP1 (UniProt P09874)	0.7
GNPTAB (UniProt Q3T906)	-1.66
PDE12 (UniProt Q6L8Q7)	0.272
AP3M1 (UniProt Q9Y2T2)	0.0205
NAMPT (UniProt P43490)	0.0412
DCAKD (UniProt Q8WVC6)	-1.05
GTPBP2 (UniProt Q9BX10)	0.0371
FAM49B (UniProt Q9NUQ9)	0.0941
TAOK1 (UniProt Q7L7X3)	-0.204
EIF3G (UniProt O75821)	-0.0823
PAM (UniProt P19021)	-1.32

Target	thermal stability z-score
C2CD2 (UniProt Q9Y426)	0.109
PABPC4 (UniProt Q13310)	0.911
CAMSAP2 (UniProt Q08AD1)	-0.353
GSTT2|GSTT2B|EM	0.277
OSBPL1A (UniProt Q9BXW6)	0.611
TMUB2 (UniProt Q71RG4)	1.78
TMX3 (UniProt Q96JJ7)	-0.791
RFC5 (UniProt P40937)	-0.0735
PPM1F (UniProt P49593)	-0.757
BZW2 (UniProt Q9Y6E2)	0.313
PSMD10 (UniProt O75832)	0.0147
GHITM (UniProt Q9H3K2)	-0.193
ADD3 (UniProt Q9UEY8)	0.162
MFSD12 (UniProt Q6NUT3)	-1.79
RWDD1 (UniProt Q9H446)	0.421
AK2 (UniProt P54819)	-0.168
SOD2 (UniProt P04179)	0.261
TMEM126A (UniProt Q9H061)	0.815
VLDLR (UniProt P98155)	-0.526
FAM173A (UniProt Q9BQD7)	-0.6
RTCB (UniProt Q9Y3I0)	0.0607
FLNC (UniProt Q14315)	0.657
SLC7A6OS (UniProt Q96CW6)	0.403
TRMT61B (UniProt Q9BVS5)	-0.842

Target	thermal stability z-score
TRIP10 (UniProt Q15642)	0.0699
TARBP1 (UniProt Q13395)	-0.136
ANXA5 (UniProt P08758)	1.22
NAA16 (UniProt Q6N069)	0.394
NDUFB11 (UniProt Q9NX14)	0.514
COPB2 (UniProt P35606)	-0.0303
GCNT2 (UniProt Q8N0V5)	-0.158
STBD1 (UniProt O95210)	0.112
HEATR6 (UniProt Q6AI08)	0.194
AHCYL1 (UniProt O43865)	-0.134
CCDC117 (UniProt Q8IWD4)	-0.317
UFL1 (UniProt O94874)	-0.41
GNL3L (UniProt Q9NVN8)	0.0609
RPL26 (UniProt P61254)	0.347
UQCRQ (UniProt O14949)	0.797
CXORF38 (UniProt Q8TB03)	0.307
RIF1 (UniProt Q5UIP0)	-0.0166
POLB (UniProt P06746)	-0.17
SNX6 (UniProt Q9UNH7)	0.276
P4HA2 (UniProt O15460)	-3.49
DHX34 (UniProt Q14147)	-0.0341
IKBKB (UniProt O14920)	-0.108
RHOA (UniProt P61586)	0.411
